Results reported in a melting point compilation (Tetko et al.; mined from patent text by program, amines drawn as free bases though some values may be those of a salt).

Row | melting point [°C] | SMILES
1 | 206 to 208 | N#CC(=Cc1cc2ccccc2c2ccccc12)c1ccncc1
2 | 135 to 140 | CCCCOC(=O)c1cc(O)c(O)c(C#N)c1
3 | 166 to 167 | CCn1c2ccc(C=O)cc2c2cc(C=C(c3ccccc3)c3ccccc3)ccc21
4 | 88 to 89 | COC(=O)c1sccc1NC(=O)OC(C)(C)C
5 | 136 to 138 | O=C(O)c1ccc(OCCCCl)cc1
6 | 95 to 97 | O=S(=O)(NCCCCCCNc1nsc2nccn12)c1cccc2ccccc12
7 | 72 to 73 | OC1(C(Cl)Cl)O[C@H](COCc2ccccc2)[C@@H](OCc2ccccc2)[C@H](OCc2ccccc2)[C@H]1OCc1ccccc1 (stereo partly specified)
8 | 46 to 47 | CCCCCCCCCCCCCCc1ccc(CCCCCC)c(OCC(O)CO)c1 (stereo unspecified)
9 | 250 to 251 | COc1ccc(C(=O)Nc2ccccc2)cc1NS(=O)(=O)c1ccc(NC(C)=O)cc1
10 | 153 to 155 | CCCC(=O)c1cnc2ccsc2c1Nc1ccc(F)cc1C
11 | 215 to 216 | O=C(O)c1ccccc1C(=O)Nc1cccc(-c2ccnc3c(C(=O)c4cccs4)cnn23)c1
12 | 212 to 213 | O=C(CCl)Nc1ccc2c(c1NC(=O)c1ccno1)C(=O)c1ccccc1C2=O
13 | 30 | CCCCCCCCc1ccc(C=CCO)cc1
14 | 115 to 117 | O=S(=O)(Nc1cccc(OCc2cccc(-c3ccccc3)n2)c1)C(F)(F)F
15 | 86 | CC(=O)OCCCCN1CCC(CNC(=O)[C@@H]2CCCN2S(=O)(=O)c2ccc(Cl)c(COc3cccc4c(-n5ccnc5)cc(C)nc34)c2Cl)CC1
16 | 159 | CC1(C)C(=O)N(C(=O)NCC2(O)CCN(CC3(C(=O)O)CCC3)CC2)c2cc(F)ccc21
17 | 139 to 140 | O=S1N=C(NCCCN(Cc2ccccc2)c2ccccn2)C(NCc2ccccn2)=N1 (stereo unspecified)
18 | 142 to 143 | Cc1oc(-c2ccccc2)nc1COc1ccc([N+](=O)[O-])cn1
19 | 157 to 161 | CC(C)(C)NC(=O)c1ccccc1C(C(=O)C(C)(C)C)c1ccccc1 (stereo unspecified)
20 | 104 to 105 | CCOC(=O)CCc1cn(Cc2ccc(OCc3cn4c(-c5ccccc5)cccc4n3)cc2)nc1OCC
21 | 97 to 98 | CCOc1ccc(S(=O)(=O)N(Cc2ccc(C#N)cc2)[C@@H](CC)c2ccccc2)cc1
22 | 236 to 238 | CCc1c(-c2ccc(OCc3ccccc3)cc2)c2c(C(=O)N(C)C)c(C(=O)O)c3cccc1n32
23 | 100 to 102 | CCCCc1nn(-c2cc(NC(=O)COCC)ccc2Cl)c(=O)n1Cc1ccc(-c2ccccc2S(=O)(=O)NC(=O)OC(C)(C)C)cc1F
24 | 40 | COc1ccc(S(=O)(=O)C2(C(=O)NO)CCN(C(C)(C)C)CC2)cc1
25 | 68 to 70 | CC(=O)OCC(=O)c1ccc(Cl)c(Cl)c1
26 | 131 to 133 | CC(=CC(=O)NCCCCCC(=O)NO)c1ccccc1
27 | 193 to 194 | N#CCCNC(=O)c1cccc(-c2ccc3c(n2)C(Oc2ccc(Cl)cc2Cl)CC3)c1 (stereo unspecified)

Row | melting point [°C] | SMILES
28 | 131 to 133 | COc1cc(CC(=O)OC(C)(C)C)ccc1NC(=O)Nc1ccccc1C(F)(F)F
29 | 163 to 165 | CCOC(=O)n1nc2cc(Cl)ccc2c1N
30 | 222 to 223 | COC(=O)[C@H]1C[C@H](NC(=O)c2cccc(CNC(=O)OC(C)(C)C)c2)c2c(Cl)cc(Cl)cc2N1 (relative stereo)
31 | 198 to 202 | CC=CCNc1cc(C(=O)O)cc(S(N)(=O)=O)c1Oc1cccc(NC(C)=O)c1
32 | 214 to 217 | O=C1c2ccccc2C(=O)N1CCCN1C(=O)C2(COc3cc4c(cc32)CCO4)c2ccccc21 (stereo unspecified)
33 | 123 to 124 | COC(=S)c1ccc2ccc(C(=O)N(C)C)cc2c1
34 | 154 to 155 | COC(=O)C1=C(C)NC(C)=C(C(=O)OC)C1c1ccc(OC)c(OC)c1
35 | 124 to 125 | CC(=O)OC1C(N(C)S(C)(=O)=O)c2cc(OCc3ccccc3)ccc2OC1(C)C (stereo unspecified)
36 | 134 to 135 | Cc1nnc(C=Cc2ccccc2OCC2CO2)s1 (stereo unspecified)
37 | 100 to 105 | CC(COc1ccc(CC2SC(=O)NC2=O)cc1)NCC(O)c1cccc(C(F)(F)F)c1 (stereo unspecified)
38 | 132 | C(=C\c1ccc2c(c1)COC(N[C@@H]1CCc3ccccc31)=N2)/c1cccnc1
39 | 126 to 127 | CC(=O)OCc1cccc2c1nc(-c1c(F)cccc1F)n2Cc1c(F)cccc1F
40 | 129 | O=C(CI)NCCSC=CSCCNC(=O)CI
41 | 160 | CCC(=O)OC1c2ccccc2C(=O)N1c1ccc2ccc(Cl)nc2n1 (stereo unspecified)
42 | 142 to 144 | CCCCCCCNC(=O)Nc1ccc(N(C)C)cc1C(=O)NCC1CCCN(C(c2ccccc2)c2ccccc2)C1 (stereo unspecified)
43 | 140 to 144 | N#Cc1ccccc1C=CCN1CCc2nc(N)sc2CC1
44 | 279 to 280 | NNC(=O)c1ccc(-c2csc(N=C(N)N)n2)o1
45 | 106 to 108 | CCCCN1CCC(n2nc(-c3c(-c4ccccc4)nn4ccccc34)ccc2=O)CC1
46 | 100 to 102 | COc1cc(C(=O)NS(=O)(=O)c2ccccc2C)ccc1Cc1cccc2ccc(CCCC(=O)N3CCOCC3)cc12
47 | 301 to 303 | N#Cc1cc2c([nH]c1=O)CCc1ccccc1-2
48 | 169 to 171 | COc1ccc(C2C=C3CCN(C)CC3C(CO)C2CO)cc1 (stereo unspecified)
49 | 118 to 119 | O=C1/C(=C/c2ccccc2)C(Br)c2ccccc21 (stereo unspecified)
50 | 78 to 80 | CC(C)NCC1COC(=O)C1(c1ccccc1)c1ccccc1 (stereo unspecified)
51 | 273 to 275 | O=C(NC1CCCCC1)N1CCc2cc(S(=O)(=O)N3CC(c4ccccc4)NC3=O)ccc21 (stereo unspecified)
52 | 215 to 216 | CS(=O)(=O)Nc1cc2occ(Br)c(=O)c2cc1Oc1ccccc1
53 | 217 | Cc1cc2c(cc1-c1cc(-c3ccc(C(=O)O)cc3)ccc1-c1ccccc1)C(C)(C)CCC2(C)C

More lines, now with the values behind:

Row | SMILES | melting point [°C]
54 | Nc1nc(-c2cc(Cl)ccc2Cl)nc(N2CCNC(=O)C2)n1 | > 275
55 | COc1cc(-c2ncn(C)c2-c2scc(OC)c2OC)cc(OC)c1OC | 142 to 143
56 | CC(NC(=O)C(O)c1cc(F)cc(F)c1)C(=O)NC1C(=O)N(C)c2ccccc2N(c2ccccc2)C1=O (stereo unspecified) | 212 to 213
57 | CN(C)CCC(O)c1ccc(Cl)s1 (stereo unspecified) | 76 to 77
58 | CCOC(=O)C1=C(C)Nc2nc(N3CCOCC3)nc(N3CCOCC3)c2C1c1cccc(OC)c1OC (stereo unspecified) | 194
59 | Cc1nc(C)c(Cl)c(NCc2ccc(OCCn3c([N+](=O)[O-])cnc3C)cn2)n1 | 182 to 184
60 | COc1nc(Cl)nc2c1ncn2C1CC(O)C(CO)O1 (stereo unspecified) | 141 to 142
61 | Cc1ccc(S(=O)(=O)OCC2COc3ccc(N)c(C=NO)c3O2)cc1 (stereo unspecified) | 164 to 166
62 | C/C(=C(\C#N)C(N)=S)N1CCC(O)CC1 | 160 to 163
63 | O=[N+]([O-])c1ccccc1OCCN1CCN(c2cc(Cl)nnc2Cl)CC1 | 125 to 126
64 | CC(C)CNC1NC(=O)N(c2cccs2)C(=O)N1 | 265 to 268
65 | COc1ccc2[nH]cc(C3=CCN(C[C@H](O)COc4cccc5[nH]ccc45)CC3)c2c1 | 105 to 110
66 | CC(C)NC1=NS(=O)(=O)c2ccc(F)cc2N1 | 266 to 269
67 | CC12CC(=O)C3C(CCC4CC5OC5CC43C)C1CCC2C#N (stereo unspecified) | 206 to 208
68 | CC(=O)OC1CCCC(n2c(Br)nc3cc(Cl)c(Cl)cc32)C1OC(C)=O (stereo unspecified) | 71 to 79
69 | CCC(C)NC(C(=O)O)C(C)C (stereo unspecified) | > 300
70 | NC1([C@@H]2CCN(c3ccc4c(=O)c(C(=O)O)cn([C@@H]5C[C@@H]5F)c4c3)C2)CC1 | 251 to 253
71 | CN=C(NC#N)C1=CC2(CCOCC2)Oc2ccc([N+](=O)[O-])cc21 | 293 to 294
72 | COc1cc2c(cc1C)C(CCCN1CCN(C)CC1)(c1ccccc1F)C(=O)N2S(=O)(=O)c1ccc(OC(C)C)cc1 (stereo unspecified) | 70
73 | N#Cc1cc(N)cc([N+](=O)[O-])c1 | 168 to 170
74 | O=P1(c2ccc(C(F)(F)F)cc2)c2ccccc2CN1c1ccccc1 (stereo unspecified) | 187 to 189
75 | CC(C)(C)NS(=O)(=O)c1cnc(-c2cn(-c3cc(-c4ccc(C(F)(F)F)cc4)cc(C(F)(F)F)n3)cn2)s1 | 252

Row | SMILES | melting point [°C]
76 | CC(=O)CSC1C2=C(CCCC2)C(=O)N1c1ccc(Cl)cc1F (stereo unspecified) | 131 to 132
77 | COC1=C(OC)C(=O)C2=C(CCC(CCOc3ccc(C)cc3)CC2)C1=O | 56 to 57
78 | CCOc1cc(OCC)c(C=[N+]([O-])C2CCCCC2)c(OCC)c1 | 146
79 | N#Cc1ccc(-c2cccc(C=O)c2)cc1 | 122 to 123
80 | Oc1ccc2cc(Br)ccc2c1-c1c(O)ccc2cc(Br)ccc12 | 109 to 114
81 | OCc1cccc(-c2ccc(-c3cn([C@H]4CN5CCC4CC5)nn3)cc2)c1 | 207
82 | CCc1cnc(SC(C)(C)C)c(C#N)c1 | 63 to 66
83 | CN1CCN(c2c(F)c(N)c3c(=O)c(C(=O)O)cn(C4CC4)c3c2F)CC1 | 247 to 248
84 | CCOC(=O)C1N=C(c2ccccc2)c2cc([N+](=O)[O-])ccc2NC1=O (stereo unspecified) | 271
85 | COc1c(-c2ccc3cc(NS(C)(=O)=O)ccc3c2)cc(N2CCCNC2=O)cc1C(C)(C)C | > 300
86 | CSC(=NS(=O)(=O)c1cccnc1)SC | 115 to 118
87 | CC(C)c1cc(C(C)C)c(CC(=O)NS(=O)(=O)Oc2c(C(C)C)cc(O)cc2C(C)C)c(C(C)C)c1 | 182 to 183
88 | CCn1ncc2c3noc(-c4cccc(OC)c4)c3cnc21 | 170 to 171
89 | CCn1ccnc1S(N)(=O)=O | 123 to 125
90 | CC1(C)Oc2c(c(Cl)cc(Cl)c2-n2c(=O)cc(C(F)(F)F)[nH]c2=O)C1=O | 308 to 320
91 | O=C1NC(=O)C2(c3ccc4ccc(O)nc4n3)C=CC=CC12 (stereo unspecified) | 370
92 | CNc1nccn2c(Br)cnc12 | 139
93 | C[C@H]1N(C(=O)c2ccc(C(F)(F)F)cc2F)CC(=O)O[C@@]1(Cn1cncn1)c1ccc(F)cc1F (relative stereo) | 191 to 192
94 | CNC(=O)C(CC1CCCCC1)NC(=O)Nc1n[nH]c(=S)s1 (stereo unspecified) | 246 to 247
95 | O=C(O)c1cc(-c2ccc(-c3ccc(C(F)(F)F)cc3)o2)ccc1O | 272 to 273
96 | CCCc1ccnc2c(=O)[nH]c(-c3cc(S(=O)(=O)N4CCN(C)CC4)ccc3OCC)nc12 | 211 to 212
